The text below walks through data of patent US20230091047A1 (priority 2019, published 2023).

The test system of data set [1] is HBV (HepG2.117 cell line, inducibly HBV producing). Briefly: Anti-HBV activity: intracellular HBV DNA by real-time PCR in HepG2.117 cells after 3 days of treatment. The format is cell-based, hepatitis B virus. Summed up:
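First, HBV replication is induced in HepG2.117 cells by doxycycline absence. Next, serially diluted compound is added for 3 days. Finally, intracellular HBV DNA is quantified by HBV-specific real-time PCR.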
On the technique in general: In qPCR the cycle at which signal appears reflects the starting amount.

A short description of another data set: in vitro. The format is cell-based. The conditions noted are these: human, HepG2 or HepG2.117 cells, ATPlite, mean value. The method, boiled down:
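Luminescent ATP quantitation served as the viability endpoint following a 3- or 4-day incubation with test compounds.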
On the technique in general: ATP-based viability assays read luminescence as a measure of living cells.

The mark [2] stands for this setting: Hepatitis B virus, HepG2.117, 72 h, HepG2.117 cells, 3 days of treatment, intracellular HBV DNA by real-time PCR; mean value; read-out: EC50 (μM, mean value).
The mark [3] stands for this setting: 3-days incubation (unmarked values).
Where [4] appears, read: Hepatitis B virus, HepG2.117, 72 h, HepG2.117 cells, intracellular HBV DNA by real-time PCR, 3 days of treatment, mean value; read-out: EC50 (μM, mean value).
[5] abbreviates: 3-days incubation (not marked with *).

Read-outs that look alike come from different tables or passages of the source.

By EC50 is commonly meant the concentration needed to bring the measured effect to its halfway point. The term CC50 denotes the concentration at which the toxic effect on the cells reaches its halfway point. Low readings indicate greater toxicity to the cells, high ones lower toxicity to the cells. Regarding `CC(C)Nc1nc2c(c(=O)n1-c1ccc(-c3ccnnc3)cc1)CCN(C(=O)c1ccc(Cl)c(Cl)c1)C2` [Compound C177, 7-(3,4-dichlorobenzoyl)-2-[(propan-2-yl)amino]-3-[4-(pyridazin-4-yl)phenyl]-5,6,7,8-tetrahydropyrido[3,4-d]pyrimidin-4(3H)-one], in data set [1] (setting [2]), the EC50 is 0.26 µM. Also, the CC50 at 3 days in “in vitro” (setting [3]) is 18.2 µM.

Turning to `CNC(=O)c1cc(-n2c(N[C@@H](C)c3ccc(OC(F)(F)F)cc3)nc3c(c2=O)C[C@@H](C)N(C(=O)c2ccc(Cl)c(Cl)c2)C3)n(C)n1` [Compound C618], in data set [1] (setting [4]), the EC50 worked out at 0.09 µM. Also, in the data set “in vitro” (setting [5]), the CC50 at 3 days is > 45 µM.

On to `CNC(=O)c1ccc(-n2c(NC[C@H](C)c3cccc(OC)c3)nc3c(c2=O)C[C@@H](C)N(C(=O)c2ccc(Cl)c(Cl)c2)C3)cc1` (single isomer, unassigned) [Compound C436a], for which the EC50 in data set [1] (setting [4]) came out at 0.99 µM. Moreover, in “in vitro” (setting [5]), the CC50 at 3 days is 22.3 µM.

As for `CNC(=O)c1ccc(-n2c(NC(C)C)nc3c(c2=O)C[C@@H](C)N(C(=O)c2cc4ccncc4s2)C3)cc1` [Compound C503], the concentration for a half-maximal effect (EC50) in data set [1] (setting [4]) is 6.32 µM. Also, the cytotoxic concentration (CC50) at 3 days in the data set “in vitro” (setting [5]) is > 50 µM.

On to `CNC(=O)c1ccc(-n2c(N[C@@H](C)c3ccc(C)cc3)nc3c(c2=O)C[C@@H](C)N(C(=O)c2ccc(Cl)c(Cl)c2)C3)cc1` [Compound C431], for which, in data set [1] (setting [4]), the 50% effective concentration (EC50) is 0.03 µM. Besides, in “in vitro” (setting [5]), it took 20.6 µM to reach half-maximal cytotoxicity (CC50 at 3 days).

Consider `COc1ccc(CN(C)c2nc3c(c(=O)n2-c2ccccc2OC)CCN(C(=O)c2ccc(Cl)c(Cl)c2)C3)cc1` [Compound C43, 7-(3,4-dichlorobenzoyl)-3-(2-methoxyphenyl)-2-{[(4-methoxyphenyl)methyl](methyl)amino}-5,6,7,8-tetrahydropyrido[3,4-d]pyrimidin-4(3H)-one], for which, in data set [1] (setting [2]), the half-maximal effective concentration (EC50) was 5.64 µM. Further, the cytotoxic concentration (CC50) at 3 days in the data set “in vitro” (setting [3]) is > 50 µM.

Take `COC(=O)C1COCCN1c1ccc(-n2c(NC(C)C)nc3c(c2=O)CCN(C(=O)c2ccc(Cl)c(Cl)c2)C3)cc1` (stereo not shown) [Compound C179, methyl 4-{4-[7-(3,4-dichlorobenzoyl)-4-oxo-2-[(propan-2-yl)amino]-5,6,7,8-tetrahydropyrido[3,4-d]pyrimidin-3(4H)-yl]phenyl}morpholine-3-carboxylate]: in data set [1] (setting [2]), the EC50 stood at 0.72 µM. Besides, in “in vitro” (setting [3]), the midpoint of cytotoxicity, the CC50 at 3 days, lay at 19.3 µM.

For the compound `CC(C)Nc1nc2c(c(=O)[nH]1)CCN(C(=O)c1ccc(Cl)c(Cl)c1)C2` [Compound C42, 7-(3,4-dichlorobenzoyl)-2-[(propan-2-yl)amino]-5,6,7,8-tetrahydropyrido[3,4-d]pyrimidin-4(3H)-one], the EC50 in data set [1] (setting [2]) is 2.79 µM. The 50% cytotoxic concentration (CC50) at 3 days in “in vitro” (setting [3]) was > 50 µM.

Consider `CC(C)Nc1nc2c(c(=O)n1[C@H]1CC[C@H](C(=O)O)CC1)C[C@@H](C)N(C(=O)c1ccc(Cl)c(Cl)c1)C2` [Compound C254, trans-4-[(6R)-7-(3,4-dichlorobenzoyl)-6-methyl-4-oxo-2-[(propan-2-yl)amino]-5,6,7,8-tetrahydropyrido[3,4-d]pyrimidin-3(4H)-yl]cyclohexane-1-carboxylic acid], for which the EC50 in data set [1] (setting [2]) was 1.99 µM. In addition, the CC50 at 3 days in “in vitro” (setting [3]) was > 50 µM.

As for `COc1ccc(CNc2nc3c(c(=O)n2-c2ccccc2OC)CCN(C(=O)c2ccc(F)c(Cl)c2)C3)cc1` [Compound C3, 7-(3-chloro-4-fluorobenzoyl)-3-(2-methoxyphenyl)-2-{[(4-methoxyphenyl)methyl]amino}-5,6,7,8-tetrahydropyrido[3,4-d]pyrimidin-4(3H)-one], the EC50 in data set [1] (setting [2]) turned out to be 8.48 µM. For the same compound, the CC50 at 4 days in “in vitro” (4-days incubation (values marked with *)) is > 50 µM.

Regarding `CC(C)Nc1nc2c(c(=O)n1-c1ccc3c(c1)C(=O)NC3)C[C@@H](C)N(C(=O)c1ccc(Cl)c(Cl)c1)C2` [Compound C229, (6R)-7-(3,4-dichlorobenzoyl)-6-methyl-3-(3-oxo-2,3-dihydro-1H-isoindol-5-yl)-2-[(propan-2-yl)amino]-5,6,7,8-tetrahydropyrido[3,4-d]pyrimidin-4(3H)-one], in data set [1] (setting [2]), the EC50 stood at 0.11 µM. Moreover, in the data set “in vitro” (setting [3]), the CC50 at 3 days was > 50 µM.

As to `Cc1nnc(-c2ccc(-n3c(NC(C)C)nc4c(c3=O)C[C@@H](C)N(C(=O)c3ccc(Cl)c(Cl)c3)C4)cc2)o1` [Compound C242, (6R)-7-(3,4-dichlorobenzoyl)-6-methyl-3-[4-(5-methyl-1,3,4-oxadiazol-2-yl)phenyl]-2-[(propan-2-yl)amino]-5,6,7,8-tetrahydropyrido[3,4-d]pyrimidin-4(3H)-one], in data set [1] (setting [2]), the EC50 was 0.28 µM. Besides, the CC50 at 3 days in the data set “in vitro” (setting [3]) is > 50 µM.

Consider `CNC(=O)c1ccc(-n2c(NC(C)C)nc3c(c2=O)C[C@@H](C)N(C(=O)c2cc4c(Br)cccc4[nH]2)C3)cc1` [Compound C569], for which, in data set [1] (setting [4]), the EC50 came out at 0.01 µM. It took 21.4 µM to reach half-maximal cytotoxicity in the data set “in vitro” (setting [5]) (CC50 at 3 days).

Take `CNC(=O)c1ccc(-n2c(NCc3cc(C(F)F)no3)nc3c(c2=O)C[C@@H](C)N(C(=O)c2ccc(Cl)c(Cl)c2)C3)cc1` [Compound C554]: the EC50 in data set [1] (setting [4]) stood at 1.77 µM. In addition, the 50% cytotoxic concentration (CC50) at 3 days in “in vitro” (setting [5]) is > 50 µM.

Take `CNC(=O)c1ccc(-n2c(NCC(n3cncn3)C(F)(F)F)nc3c(c2=O)C[C@@H](C)N(C(=O)c2ccc(Cl)c(Cl)c2)C3)cc1` (stereo partly shown) [Compound C601]: the EC50 in data set [1] (setting [4]) amounted to 7.71 µM. The cytotoxic concentration (CC50) at 3 days in the data set “in vitro” (setting [5]) is > 50 µM.

With `CC(C)Nc1nc2c(c(=O)n1-c1ccc(S(C)(=O)=O)cc1)CCN(C(=O)c1ccn3ncnc3c1)C2` [Compound C365], in data set [1] (setting [2]), the half-maximal effective concentration (EC50) was > 10 µM. For the same compound, in the data set “in vitro” (setting [3]), the CC50 at 3 days is > 50 µM.

Regarding `CC(C)Nc1nc2c(c(=O)n1-c1ccc(-n3ccnn3)cc1)C[C@@H](C)N(C(=O)c1ccc(Cl)c(Cl)c1)C2` [Compound C430], the EC50 in data set [1] (setting [4]) is 0.06 µM. In the data set “in vitro” (setting [5]), the 50% cytotoxic concentration (CC50) at 3 days is > 50 µM.

As for `CNC(=O)c1ccc(-n2c(NC(C)C)nc3c(c2=O)C[C@@H](C)N(C(=O)c2ccc(Br)c(Cl)c2F)C3)cc1` [Compound C580], in data set [1] (setting [4]), the concentration giving a half-maximal response (EC50) stood at 0.08 µM. Moreover, in “in vitro” (setting [5]), the CC50 at 3 days is > 50 µM.

As for `CNC(=O)c1ccc(-n2c(NC34C5C6C7C5C3C7C64)nc3c(c2=O)C[C@@H](C)N(C(=O)c2ccc(Cl)c(Cl)c2)C3)cc1` (stereo partly shown) [Compound C461], the EC50 in data set [1] (setting [4]) is 1.45 µM. In addition, in the data set “in vitro” (setting [5]), the CC50 at 3 days is > 50 µM.

As for `CNC(=O)c1ccc(-n2c(NC(C)C)nc3c(c2=O)C[C@@H](C)N(C(=O)c2ccc4cncc(Br)c4c2)C3)cc1` [Compound C491], in data set [1] (setting [4]), the EC50 turned out to be 15.3 µM. Also, the CC50 at 3 days in “in vitro” (setting [5]) was > 50 µM.

Turning to `CNC(=O)c1ccc(-n2c(NC3(C)CC3)nc3c(c2=O)C[C@@H](C)N(C(=O)c2ccc(Cl)c(Cl)c2)C3)cc1` [Compound C297, 4-[(6R)-7-(3,4-dichlorobenzoyl)-6-methyl-2-[(1-methylcyclopropyl)amino]-4-oxo-5,6,7,8-tetrahydropyrido[3,4-d]pyrimidin-3(4H)-yl]-N-methylbenzamide], the EC50 in data set [1] (setting [2]) is 0.05 µM. In the data set “in vitro” (setting [3]), the cytotoxic concentration (CC50) at 3 days is > 50 µM.

`CNC(=O)c1ccc(-n2c(NCc3ccc4[nH]ccc4c3)nc3c(c2=O)C[C@@H](C)N(C(=O)c2ccc(Cl)c(Cl)c2)C3)cc1` [Compound C284, 4-[(6R)-7-(3,4-dichlorobenzoyl)-2-{[(1H-indol-5-yl)methyl]amino}-6-methyl-4-oxo-5,6,7,8-tetrahydropyrido[3,4-d]pyrimidin-3(4H)-yl]-N-methylbenzamide]: in data set [1] (setting [2]), the 50% effective concentration (EC50) was 0.13 µM. For the same compound, the CC50 at 3 days in the data set “in vitro” (setting [3]) was > 50 µM.

For `CC(C)Nc1nc2c(c(=O)n1-c1ccc(-c3ncc[nH]3)cc1)C[C@@H](C)N(C(=O)c1ccc(Cl)c(Cl)c1)C2` [Compound C196, (6R)-7-(3,4-dichlorobenzoyl)-3-[4-(1H-imidazol-2-yl)phenyl]-6-methyl-2-[(propan-2-yl)amino]-5,6,7,8-tetrahydropyrido[3,4-d]pyrimidin-4(3H)-one], the EC50 in data set [1] (setting [2]) is 0.17 µM. In “in vitro” (setting [3]), the half-maximal cytotoxic concentration (CC50) at 3 days is > 43 µM.

For `CNC(=O)c1ccc(-n2c(NC(C)C)nc3c(c2=O)C[C@@H](C)N(C(=O)c2cc(Br)cc(C(F)(F)F)c2)C3)cc1` [Compound C602], the EC50 in data set [1] (setting [4]) came to 0.38 µM. Besides, in “in vitro” (setting [5]), the CC50 at 3 days is > 25 µM.

For `CNC(=O)c1cc(-n2c(NC(C)C)nc3c(c2=O)C[C@@H](C)N(C(=O)c2ccc(Cl)c(C(F)(F)F)c2)C3)nn1C` [Compound C668], the EC50 in data set [1] (setting [4]) stood at 0.01 µM. Further, the cytotoxic concentration (CC50) at 3 days in the data set “in vitro” (setting [5]) was > 50 µM.

For `CC(C)Nc1nc2c(c(=O)n1-c1ccc(Br)cc1)C[C@@H](C)N(C(=O)c1ccc(Cl)c(Cl)c1)C2` [Compound C183, (6R)-3-(4-bromophenyl)-7-(3,4-dichlorobenzoyl)-6-methyl-2-[(propan-2-yl)amino]-5,6,7,8-tetrahydropyrido[3,4-d]pyrimidin-4(3H)-one], the EC50 in data set [1] (setting [2]) amounted to 0.21 µM. In “in vitro” (setting [3]), the CC50 at 3 days is > 50 µM.

As for `CNC(=O)c1ccc(-n2c(N[C@H](C)c3cnccn3)nc3c(c2=O)C[C@@H](C)N(C(=O)c2ccc(Cl)c(C(F)(F)F)c2)C3)cc1` (single isomer, unassigned) [Compound C665a], the EC50 in data set [1] (setting [4]) was determined as 0.49 µM. Besides, the cytotoxic concentration (CC50) at 3 days in the data set “in vitro” (setting [5]) is > 50 µM.

As for `COc1ccc(CNc2nc3c(c(=O)[nH]2)CCN(C(=O)c2ccc(Br)cc2)C3)cc1` [Compound C116, 7-(4-bromobenzoyl)-2-{[(4-methoxyphenyl)methyl]amino}-5,6,7,8-tetrahydropyrido[3,4-d]pyrimidin-4(3H)-one], the concentration giving a half-maximal response (EC50) in data set [1] (setting [2]) amounted to 21.6 µM. The compound also came in with a half-maximal cytotoxic concentration (CC50) at 3 days in the data set “in vitro” (setting [3]) of 27.4 µM.

Turning to `CC(C)Nc1nc2c(c(=O)n1-c1ccc(S(C)(=O)=O)cc1)CCN(C(=O)c1ccc3ccoc3c1)C2` [Compound C139, 7-(1-benzofuran-6-carbonyl)-3-[4-(methanesulfonyl)phenyl]-2-[(propan-2-yl)amino]-5,6,7,8-tetrahydropyrido[3,4-d]pyrimidin-4(3H)-one], the concentration for a half-maximal effect (EC50) in data set [1] (setting [2]) was 11.2 µM. In addition, the CC50 at 3 days in “in vitro” (setting [3]) is > 50 µM.
